Results reported in the kinase profiling compilation of Christmann-Franck et al. (2016).

How the values were obtained:
Test in all cases: KINOMEscan competition binding
Settings in all cases: compound 10.0 µM
PIK3CD (human) = PIK3CD (human) (UniProt O00329)
PRKCE (human) = PRKCE (human) (UniProt Q02156)
[1] = molecular target: TYK2 JH2 pseudokinase (human) (UniProt P29597)
STK38L (human) = STK38L (human) (UniProt Q9Y2H1)
TNNI3K (human) = TNNI3K (human) (UniProt Q59H18)
CDK9 (human) = CDK9 (human) (UniProt P50750)
CDK4 CCND1 (human) = CDK4 CCND1 (human) (UniProt P11802+P24385)
DYRK2 (human) = DYRK2 (human) (UniProt Q92630)
CAMKK2 (human) = CAMKK2 (human) (UniProt Q96RR4)
LRRK2 (human) = LRRK2 (human) (UniProt Q5S007)
MAPK9 (human) = MAPK9 (human) (UniProt P45984)
MST1R (human) = MST1R (human) (UniProt Q04912)
SRMS (human) = SRMS (human) (UniProt Q9H3Y6)
RIPK1 (human) = RIPK1 (human) (UniProt Q13546)
NEK2 (human) = NEK2 (human) (UniProt P51955)
Sequence of NEK2 (human) (P51955 whole entry, looked up): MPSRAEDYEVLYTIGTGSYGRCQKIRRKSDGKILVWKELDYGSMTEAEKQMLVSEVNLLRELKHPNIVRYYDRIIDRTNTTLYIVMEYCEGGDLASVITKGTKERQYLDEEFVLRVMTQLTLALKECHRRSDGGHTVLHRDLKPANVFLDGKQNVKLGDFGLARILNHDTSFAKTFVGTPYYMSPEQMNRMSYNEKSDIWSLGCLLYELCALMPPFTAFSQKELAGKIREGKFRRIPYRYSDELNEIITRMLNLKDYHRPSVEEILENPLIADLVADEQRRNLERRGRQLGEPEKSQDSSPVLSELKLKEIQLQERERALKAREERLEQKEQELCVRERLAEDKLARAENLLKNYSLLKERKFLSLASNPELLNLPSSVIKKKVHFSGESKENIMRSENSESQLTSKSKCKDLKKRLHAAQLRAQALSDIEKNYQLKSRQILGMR

[2] = system: KIT (human), P10721 [V559D/T670I]
LYN (human) = LYN (human) (UniProt P07948)
[3] = system: KIT (human), P10721 [D816H]
NTRK1 (human) = NTRK1 (human) (UniProt P04629)
PRPF4B (human) = PRPF4B (human) (UniProt Q13523)
STK39 (human) = STK39 (human) (UniProt Q9UEW8)
PLK1 (human) = PLK1 (human) (UniProt P53350)
CIT (human) = CIT (human) (UniProt O14578)
TAOK1 (human) = TAOK1 (human) (UniProt Q7L7X3)
Sequence of TAOK1 (human) (Q7L7X3 whole entry, looked up): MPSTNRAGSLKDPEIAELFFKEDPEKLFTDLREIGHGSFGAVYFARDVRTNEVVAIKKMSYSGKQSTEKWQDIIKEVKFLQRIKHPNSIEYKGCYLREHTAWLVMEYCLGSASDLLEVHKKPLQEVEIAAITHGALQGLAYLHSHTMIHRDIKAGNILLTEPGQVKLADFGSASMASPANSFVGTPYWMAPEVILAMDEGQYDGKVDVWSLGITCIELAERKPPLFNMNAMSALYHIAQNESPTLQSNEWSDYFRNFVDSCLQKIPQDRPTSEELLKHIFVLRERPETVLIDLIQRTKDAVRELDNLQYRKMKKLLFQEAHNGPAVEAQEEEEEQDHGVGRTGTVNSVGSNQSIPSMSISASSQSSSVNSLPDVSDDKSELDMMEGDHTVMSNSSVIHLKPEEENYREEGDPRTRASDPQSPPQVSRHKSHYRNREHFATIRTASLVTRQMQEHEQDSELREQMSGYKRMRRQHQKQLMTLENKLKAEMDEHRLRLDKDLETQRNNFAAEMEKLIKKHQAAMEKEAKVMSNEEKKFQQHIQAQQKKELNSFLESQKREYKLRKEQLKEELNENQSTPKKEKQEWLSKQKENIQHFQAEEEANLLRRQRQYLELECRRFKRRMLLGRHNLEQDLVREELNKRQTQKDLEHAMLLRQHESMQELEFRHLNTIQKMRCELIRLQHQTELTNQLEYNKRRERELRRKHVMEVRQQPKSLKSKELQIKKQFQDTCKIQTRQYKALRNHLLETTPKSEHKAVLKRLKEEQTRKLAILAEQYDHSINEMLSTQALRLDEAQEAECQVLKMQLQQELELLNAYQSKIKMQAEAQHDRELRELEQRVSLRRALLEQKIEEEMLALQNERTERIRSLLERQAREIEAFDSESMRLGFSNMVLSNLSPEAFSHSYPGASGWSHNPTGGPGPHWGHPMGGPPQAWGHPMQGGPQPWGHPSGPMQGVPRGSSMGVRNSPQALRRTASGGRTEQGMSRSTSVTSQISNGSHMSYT

PRKCD (human) = PRKCD (human) (UniProt Q05655)
[4] = system: EGFR (human), P00533 [747-751 del / S ins]
CDC2L2 (human) = CDC2L2 (human) (UniProt Q9UQ88)
[5] = molecular target: JAK3 JH1 catalytic (human) (UniProt P52333)
IGF1R (human) = IGF1R (human) (UniProt P08069)
Sequence of IGF1R (human) (P08069 whole entry, looked up): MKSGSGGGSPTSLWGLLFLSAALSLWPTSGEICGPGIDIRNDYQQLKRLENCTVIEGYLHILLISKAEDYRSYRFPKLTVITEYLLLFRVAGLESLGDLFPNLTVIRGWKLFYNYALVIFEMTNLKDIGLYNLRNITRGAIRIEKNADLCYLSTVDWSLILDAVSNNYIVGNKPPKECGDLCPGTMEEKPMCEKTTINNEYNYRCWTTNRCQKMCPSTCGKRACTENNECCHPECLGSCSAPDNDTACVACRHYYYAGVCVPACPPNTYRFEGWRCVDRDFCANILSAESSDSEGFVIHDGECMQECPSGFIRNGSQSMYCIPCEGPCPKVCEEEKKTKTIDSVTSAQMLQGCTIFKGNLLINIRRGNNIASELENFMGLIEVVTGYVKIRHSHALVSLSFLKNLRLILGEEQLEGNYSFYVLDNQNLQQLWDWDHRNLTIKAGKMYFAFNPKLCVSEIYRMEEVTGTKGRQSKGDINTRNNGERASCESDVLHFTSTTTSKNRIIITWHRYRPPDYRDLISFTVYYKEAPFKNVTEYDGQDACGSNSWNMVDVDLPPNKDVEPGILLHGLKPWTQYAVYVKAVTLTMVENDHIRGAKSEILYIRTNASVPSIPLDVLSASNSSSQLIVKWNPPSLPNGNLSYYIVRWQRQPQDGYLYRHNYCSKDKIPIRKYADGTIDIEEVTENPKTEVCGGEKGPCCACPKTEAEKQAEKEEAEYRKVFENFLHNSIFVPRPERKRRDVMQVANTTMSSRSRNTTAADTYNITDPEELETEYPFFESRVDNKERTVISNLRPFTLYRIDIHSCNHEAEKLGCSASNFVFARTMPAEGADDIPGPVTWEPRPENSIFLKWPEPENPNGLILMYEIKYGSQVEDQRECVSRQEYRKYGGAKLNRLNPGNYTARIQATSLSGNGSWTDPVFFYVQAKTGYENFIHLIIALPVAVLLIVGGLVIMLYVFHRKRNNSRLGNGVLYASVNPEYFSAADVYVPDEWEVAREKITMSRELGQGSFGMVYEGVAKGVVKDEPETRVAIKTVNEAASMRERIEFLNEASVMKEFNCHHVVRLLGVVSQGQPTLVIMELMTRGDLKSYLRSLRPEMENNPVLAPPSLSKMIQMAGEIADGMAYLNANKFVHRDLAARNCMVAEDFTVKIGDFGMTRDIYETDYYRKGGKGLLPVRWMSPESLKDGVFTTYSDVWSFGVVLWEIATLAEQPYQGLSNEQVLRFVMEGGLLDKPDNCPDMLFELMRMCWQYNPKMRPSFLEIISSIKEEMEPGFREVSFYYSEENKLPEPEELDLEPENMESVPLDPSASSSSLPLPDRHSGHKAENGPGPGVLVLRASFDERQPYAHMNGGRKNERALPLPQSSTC

OXSR1 (human) = OXSR1 (human) (UniProt O95747)
STK33 (human) = STK33 (human) (UniProt Q9BYT3)
MAP2K4 (human) = MAP2K4 (human) (UniProt P45985)
Sequence of MAP2K4 (human) (P45985 whole entry, looked up): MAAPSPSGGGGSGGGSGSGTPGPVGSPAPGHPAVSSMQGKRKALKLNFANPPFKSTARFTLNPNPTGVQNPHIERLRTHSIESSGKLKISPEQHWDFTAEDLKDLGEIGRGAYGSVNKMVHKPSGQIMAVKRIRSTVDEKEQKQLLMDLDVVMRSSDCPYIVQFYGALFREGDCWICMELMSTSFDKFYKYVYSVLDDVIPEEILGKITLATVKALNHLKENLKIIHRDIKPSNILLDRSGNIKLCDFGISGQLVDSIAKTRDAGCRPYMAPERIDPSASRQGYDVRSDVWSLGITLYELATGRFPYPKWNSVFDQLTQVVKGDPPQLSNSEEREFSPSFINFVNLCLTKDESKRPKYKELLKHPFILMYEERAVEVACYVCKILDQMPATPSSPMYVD

ERBB4 (human) = ERBB4 (human) (UniProt Q15303)
MAP3K11 (human) = MAP3K11 (human) (UniProt Q16584)
CAMK1D (human) = CAMK1D (human) (UniProt Q8IU85)
Sequence of CAMK1D (human) (Q8IU85 whole entry, looked up): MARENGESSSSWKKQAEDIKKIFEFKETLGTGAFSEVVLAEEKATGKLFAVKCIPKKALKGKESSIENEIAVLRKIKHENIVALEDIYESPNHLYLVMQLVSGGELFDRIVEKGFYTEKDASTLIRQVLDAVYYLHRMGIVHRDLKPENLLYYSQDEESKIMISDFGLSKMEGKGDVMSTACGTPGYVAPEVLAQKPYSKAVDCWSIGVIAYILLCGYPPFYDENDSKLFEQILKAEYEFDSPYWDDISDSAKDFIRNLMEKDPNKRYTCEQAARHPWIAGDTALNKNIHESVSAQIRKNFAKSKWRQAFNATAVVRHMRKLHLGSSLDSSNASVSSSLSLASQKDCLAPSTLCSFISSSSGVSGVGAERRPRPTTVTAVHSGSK

AURKC (human) = AURKC (human) (UniProt Q9UQB9)
RIPK4 (human) = RIPK4 (human) (UniProt P57078)
PRKG1 (human) = PRKG1 (human) (UniProt Q13976)
PIP5K1A (human) = PIP5K1A (human) (UniProt Q99755)
Sequence of PIP5K1A (human) (Q99755 whole entry, looked up): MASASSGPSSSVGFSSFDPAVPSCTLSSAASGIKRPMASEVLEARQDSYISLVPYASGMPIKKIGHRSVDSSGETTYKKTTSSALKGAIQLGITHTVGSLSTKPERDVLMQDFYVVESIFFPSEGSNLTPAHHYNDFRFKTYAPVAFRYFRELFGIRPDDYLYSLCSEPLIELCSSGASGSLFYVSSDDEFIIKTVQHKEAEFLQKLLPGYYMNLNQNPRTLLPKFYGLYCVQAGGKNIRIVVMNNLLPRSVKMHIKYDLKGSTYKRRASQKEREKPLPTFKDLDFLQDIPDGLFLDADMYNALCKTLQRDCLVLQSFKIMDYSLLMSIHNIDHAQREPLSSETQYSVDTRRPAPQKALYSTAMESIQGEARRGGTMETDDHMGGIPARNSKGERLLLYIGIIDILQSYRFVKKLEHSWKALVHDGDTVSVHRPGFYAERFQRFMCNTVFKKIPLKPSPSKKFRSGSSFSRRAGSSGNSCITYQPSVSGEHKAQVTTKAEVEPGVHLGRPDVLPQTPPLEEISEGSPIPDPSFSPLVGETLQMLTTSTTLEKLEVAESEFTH

[6] = system: FLT3 (human), P36888 [ITD]
CHEK1 (human) = CHEK1 (human) (UniProt O14757)

Sequence of TNNI3K (human) (Q59H18 whole entry, looked up): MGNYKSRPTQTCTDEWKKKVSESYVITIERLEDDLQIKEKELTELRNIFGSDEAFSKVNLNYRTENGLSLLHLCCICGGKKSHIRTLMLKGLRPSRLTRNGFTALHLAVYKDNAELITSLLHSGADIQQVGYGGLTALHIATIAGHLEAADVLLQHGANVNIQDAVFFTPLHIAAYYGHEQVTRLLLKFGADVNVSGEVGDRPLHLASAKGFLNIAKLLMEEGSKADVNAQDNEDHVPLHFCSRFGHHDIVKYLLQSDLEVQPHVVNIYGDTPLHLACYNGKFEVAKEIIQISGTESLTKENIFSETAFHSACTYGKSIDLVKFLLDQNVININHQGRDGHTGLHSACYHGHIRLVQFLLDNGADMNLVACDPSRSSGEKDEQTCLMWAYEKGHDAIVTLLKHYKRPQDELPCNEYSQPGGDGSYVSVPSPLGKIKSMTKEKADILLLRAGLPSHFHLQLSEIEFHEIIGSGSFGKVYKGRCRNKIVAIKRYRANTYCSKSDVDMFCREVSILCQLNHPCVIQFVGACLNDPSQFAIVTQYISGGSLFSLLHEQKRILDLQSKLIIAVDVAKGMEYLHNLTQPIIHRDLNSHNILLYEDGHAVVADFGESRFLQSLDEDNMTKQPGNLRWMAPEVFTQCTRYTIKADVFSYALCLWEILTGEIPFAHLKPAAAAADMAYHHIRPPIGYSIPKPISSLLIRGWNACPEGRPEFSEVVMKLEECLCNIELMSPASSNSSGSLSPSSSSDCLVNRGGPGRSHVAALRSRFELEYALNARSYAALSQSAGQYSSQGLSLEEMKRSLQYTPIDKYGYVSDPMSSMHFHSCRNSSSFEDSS

COC(=O)Nc1ccc(-c2nc(N3CCOCC3)c3cnn(C4CCN(C(=O)OC)CC4)c3n2)cc1
kinase still bound, per cent of control (PIK3CD (human)): 40% | kinase still bound, per cent of control (PRKCE (human)): 94% | kinase still bound, per cent of control [1]: 78% | kinase still bound, per cent of control (STK38L (human)): 97% | kinase still bound, per cent of control (TNNI3K (human)): 100% | per cent of control (CDK9 (human)): 100% | per cent of control (CDK4 CCND1 (human)): 100% | kinase still bound, per cent of control (DYRK2 (human)): 82% | kinase still bound, per cent of control (CAMKK2 (human)): 84% | kinase still bound, per cent of control (LRRK2 (human)): 91% | kinase still bound, per cent of control (MAPK9 (human)): 100% | kinase still bound, per cent of control (MST1R (human)): 82% | kinase still bound, per cent of control (SRMS (human)): 78% | kinase still bound, per cent of control (RIPK1 (human)): 100% | kinase still bound, per cent of control (NEK2 (human)): 100% | kinase still bound, per cent of control [2]: 100% | kinase still bound, per cent of control (LYN (human)): 92% | kinase still bound, per cent of control [3]: 75% | kinase still bound, per cent of control (NTRK1 (human)): 71% | kinase still bound, per cent of control (PRPF4B (human)): 100% | per cent of control (STK39 (human)): 67% | kinase still bound, per cent of control (PLK1 (human)): 90% | kinase still bound, per cent of control (CIT (human)): 98% | kinase still bound, per cent of control (TAOK1 (human)): 83% | kinase still bound, per cent of control (PRKCD (human)): 99% | kinase still bound, per cent of control [4]: 100% | per cent of control (CDC2L2 (human)): 100% | kinase still bound, per cent of control [5]: 100% | per cent of control (IGF1R (human)): 98% | kinase still bound, per cent of control (OXSR1 (human)): 90% | kinase still bound, per cent of control (STK33 (human)): 84% | kinase still bound, per cent of control (MAP2K4 (human)): 74% | kinase still bound, per cent of control (ERBB4 (human)): 98% | kinase still bound, per cent of control (MAP3K11 (human)): 97% | kinase still bound, per cent of control (CAMK1D (human)): 85% | kinase still bound, per cent of control (AURKC (human)): 100% | kinase still bound, per cent of control (RIPK4 (human)): 90% | kinase still bound, per cent of control (PRKG1 (human)): 100% | kinase still bound, per cent of control (PIP5K1A (human)): 98% | kinase still bound, per cent of control [6]: 100% | kinase still bound, per cent of control (CHEK1 (human)): 96%
